According to US5132414A, “Dideoxynucleoside-5'-phosphonoformic acid compounds” (Dana-Farber Cancer Institute, Inc., priority 1990, dated 1992):

Experiments:
[1] = Inhibition of growth of human peripheral blood leukocytes; format: cell-based; conditions: at 10^-4 M, H-PBLs, read-out: inhibition of PBL growth
Description: FIG. 3B is a graph showing inhibition of growth of human peripheral blood leukocytes;
(§1) For biological testing, a stock solution of the free acid of Example 1 was made up in DMSO and dispensed into RPMI 1640 cell growth medium to give the desired range of concentrations. The final DMSO concentration in the medium was <0.1%. These solutions in cell growth medium were used in all of the biological tests described below.
(§2) The activities of the compound of Example 1, AZT, and PFA were also examined in cultured human peripheral blood leukocytes (H-PBLs) infected with HIV-1. […] In both PBLs and Jurkat cells, therefore, the antiviral potency of the compound of Example 1 resembled that of AZT, while its low cytotoxicity was more reminiscent of that of PFA.

CEM cells = test: Inhibition of CEM cell growth; format: cell-based, human; conditions: for IC50: Homo sapiens, CCRF-CEM, 72 h, read-out: approximate IC50 for CEM cell growth
Description: (§3) FIG. 5A is a graph showing inhibition by AZT of retroviral propagation and of cell growth in cultured human lymphoblasts infected with simian immuno-deficiency virus;
(§4) FIG. 5B is a graph showing the results of using one embodiment of the invention in the same test as that of FIG. 5A.
as §1
(§5) The activities of AZT and of the compound of Example 1 against simian immunodeficiency virus (SIV) in cultured human lymphoblasts (CEM cells) were assayed; the results are shown in FIGS. 5A and 5B, respectively. The drugs were added to the culture 4 hours before the virus and inhibition was measured at 3 days.

[2] = system: Rauscher murine leukemia virus (RLV); test: Plaque assay: inhibition of plaque formation by Rauscher murine leukemia virus in mouse fibroblast cultures; format: cell-based; conditions: for inhibition of plaque formation: added 4 hours before virus, 4 days
Description: FIG. 4A is a graph showing inhibition of plaque formation by a different retrovirus (a murine leukemia virus) in mouse fibroblast cultures;
as §1
The compound of Example 1 as well as AZT and PFA were also tested in a plaque assay for the ability to inhibit plaque formation in mouse fibroblast cultures by Rauscher murine leukemia virus (RLV), a type C retrovirus; the results are shown in FIG. 4A. Drugs were added to the cultures 4 hours before the virus, and inhibition was measured at 4 days. The cytotoxicity of all the agents to non-infected fibroblasts was also determined and found to be <50% at concentrations of up to 10^-5 M as shown in FIG. 4B. […] When AZT alone was used at a concentration of only 10^-9 M there was no effect, but when AZT and PFA were combined, each at concentrations of 10^-9 M, there was almost 50% inhibition of plaque formation even though the PFA was not used in excess.

HIV-1 [3] = test: Inhibition of HIV-1 replication in Jurkat cells (RT activity), drugs added 4 h before virus (prophylaxis model); format: cell-based; conditions: for IC95: 96 h, read-out: concentration needed to achieve the same degree of inhibition (>95% inhibition of RT activity); for IC50: read-out: 50% inhibitory concentration (IC50), RT activity in culture supernatants
Experimental: The final DMSO concentration in the medium was <0.1%. These solutions in cell growth medium were used in all of the biological tests described below.
In a second evaluation, the compound salt of Example 1, AZT, and PFA were compared as inhibitors of HIV-1 replication in Jurkat cells when added to the cultures 4 h before the virus (i.e., in a prophylaxis model). The drugs were present through the length of the experiment (4 days).

HIV-1 [4] = test: Inhibition of HIV-1 replication in cultured human peripheral blood leukocytes; format: cell-based; conditions: Human immunodeficiency virus 1, Leukocyte; H-PBLs; added 4 hours before virus, measured at 4 days; read-out: 50% inhibition of viral replication
Description: FIG. 3A is a graph showing inhibition of HIV-1 replication in human peripheral blood leukocytes;
as §1, §2

[5] = Inhibition of Jurkat cell growth; format: cell-based, human; conditions: human; at 10^-5 M; Jurkat cells; read-out: growth inhibition of host cells
Description: (§6) FIG. 2B is a graph showing inhibition of Jurkat cell growth under the same conditions as in FIG. 2A;
as §1
(§7) In a second evaluation, the compound salt of Example 1, AZT, and PFA were compared as inhibitors of HIV-1 replication in Jurkat cells when added to the cultures 4 h before the virus (i.e., in a prophylaxis model). The drugs were present through the length of the experiment (4 days). […] Thus, while there was an approximately four-log TI for AZT in this experiment, the TI for the compound of Example 1 could not actually be estimated because the IC50 for cell growth inhibition, extrapolated from the dose-response curve, was >10^-3 M.

[6] = system: simian immunodeficiency virus (SIV); test: Inhibition of SIV replication in monkey peripheral blood leukocytes (RT activity); format: cell-based
Description: (§8) FIG. 6A is a graph showing results of a test similar to that of FIG. 5A except that monkey peripheral blood leukocytes were used; and
(§9) FIG. 6B is a graph showing inhibition by one embodiment of the invention under the same conditions as in FIG. 5B.
as §1, §5

[7] = system: monkey peripheral blood leukocytes (M-PBLs); test: Growth inhibition / toxicity to monkey peripheral blood leukocytes; format: cell-based; conditions: in words
Description: as §8, §9, §1, §5

[8] = system: simian immunodeficiency virus (SIV); test: Inhibition of SIV in cultured human lymphoblasts (CEM cells), RT activity; format: cell-based; conditions: CCRF-CEM, added 4 hours before virus, measured at 3 days, read-out: approximate IC50 for inhibition of RT activity in SIV-infected CEM cells
Description: as §3, §4, §1, §5

HIV-1 [9] = test: Inhibition of HIV-1 replication in Jurkat cells (RT activity in supernatant), compound added at time zero or 4 h post-infection; format: cell-based; conditions: Human immunodeficiency virus 1, compound added at time zero or 4 h post-infection, read-out: 50% inhibition of RT activity relative to non-treated HIV-infected cells
Experimental: as §1
(§10) The compound of Example 1 was tested initially for its ability to inhibit HIV-1 replication in Jurkat cells, a CD4+ human T-lymphocyte line commonly used for this purpose. Reverse transcriptase (RT) activity in the supernatant from the infected cells was used as a measure of viral replication, and the compound was added to the cultures at time zero or 4 h post-infection. Parallel cytotoxicity assays were performed in non-infected Jurkat cells to assess therapeutic selectivity.

Jurkat cells = test: Inhibition of Jurkat cell growth; format: cell-based, human; conditions: Homo sapiens, Jurkat, read-out: IC50 for cell growth inhibition
Description: as §6, §1, §7

HIV-1 RT = molecular target: T1, HIV-1 RT (Human immunodeficiency virus type 1 group M subtype B, UniProt P04585); test: Cell-free assay with purified HIV-1 RT; format: biochemical
T1 construct: purified HIV-1 RT
Description: as §1
To examine the question whether RT inhibition by the compound of Example 1 could by itself account for the antiretroviral effect in intact cells, the effect of the compound on RT activity was examined in a cell-free assay with purified HIV-1 RT. An IC50 value (ca. 50 μM) well in excess of the concentration needed to block viral replication was obtained. Therefore, it appears that metabolism is required in the action of the compound of Example 1 or that the compound has one or more targets other than RT in the cell.

[10] = Cytotoxicity in non-infected Jurkat cells, 4 days exposure; format: cell-based; conditions: human, up to 10^-4 M, read-out: decrease in cell viability
Experimental: as §1, §10

[11] = Human immunodeficiency virus 1, Jurkat

In the case of `Cc1cn([C@H]2C[C@H](N=[N+]=[N-])[C@@H](CO)O2)c(=O)[nH]c1=O` [AZT, 3'-azidothymidine, reference compound], the inhibition at 100 µM [1] is reported as 80%, the IC50 (CEM cells) is reported as roughly 2 µM and the “inhibition of plaque formation” value ([2]; at 10^-7 M) is reported as “Complete inhibition”. The “inhibition of plaque formation” value ([2]; at 10^-9 M) was “no effect”, the IC95 (HIV-1 [3]; [11]) was 100 µM and the IC50 (HIV-1 [3]; [11]) was 0.01 µM. The IC50 (HIV-1 [4]) was roughly 0.01 µM, the inhibition at 96 h, 10 µM [5] was 50 to 60% and the “concentrations required for inhibition of SIV replication in M-PBLs (versus CEM cells)” value ([6]; in words) was “required higher AZT concentrations”. The “concentrations required for inhibition of cell growth in M-PBLs (versus CEM cells)” value [7] was “required higher AZT concentrations” and the IC50 [8] was roughly 0.005 µM.
With `O=C(O)P(=O)(O)O` [PFA, phosphonoformic acid] the “inhibition of plaque formation” value ([2]; until the concentration reached 10^-4 M) was “no appreciable effect”, the IC95 (HIV-1 [3]; [11]) was 1000 µM and the IC50 (HIV-1 [3]; [11]) was 10 µM. The inhibition at 96 h, 10 µM [5] was 30%.
With `CCOC(=O)P(=O)(O)OC[C@H]1O[C@@H](n2cc(C)c(=O)[nH]c2=O)C[C@@H]1N=[N+]=[N-]` [Example 1, 3'-Azido-3'-deoxy-5'-[P-(ethoxycarbonyl)-P-Hydroxyphosphinyl]thymidine] the inhibition at 100 µM [1] was 20%, the “times less toxic to the host cells than AZT” value (CEM cells; CEM cells, relative to AZT) was “at least 200 times” and the IC50 (CEM cells) was greater than 100 µM. The “inhibition of plaque formation” value ([2]; at 10^-5 M) was “almost complete inhibition”, the “inhibition of plaque formation” value ([2]; at 10^-7 M) was “inactive” and the “effectiveness in the RLV system relative to AZT or a 1:1 combination of AZT and PFA” value ([2]; comparison in words) was “less effective than AZT or a 1:1 combination of AZT and PFA”. For the same compound, the IC50 (HIV-1 [3]; [11]) was roughly 0.002 µM, the inhibition at 0.005 µM (HIV-1 [3]; Human immunodeficiency virus 1, Jurkat, read-out: inhibition of RT activity) was greater than 95% and the “increase in potency relative to AZT” value (HIV-1 [3]; Jurkat cells, HIV-1, IC50 comparison with AZT) was “roughly fivefold”. The IC50 (HIV-1 [9]) was roughly 0.5 µM, the IC50 (HIV-1 [4]) was roughly 0.01 µM and the IC50 (Jurkat cells) was greater than 1000 µM. The inhibition at 96 h, 10 µM [5] was 20%, the IC50 ([6]; Simian immunodeficiency virus, Leukocyte, in Primates, M-PBLs, added 4 hours before virus, read-out: 50% inhibition of RT activity (SIV replication)) was 0.1 µM and the “toxicity to the host cell relative to AZT” value [7] was “considerably lower than with AZT”. The IC50 [8] was roughly 0.01 µM, the IC50 (HIV-1 RT) was roughly 50 µM and the cytotoxicity at 96 h, 100 µM [10] was less than 10%.
